According to US8338480B2, “Combination treatment of metabolic disorders” (Wellstat Therapeutics Corporation, priority 2006, dated 2012):
Where a name gives a salt, the structure may show the parent alone.

Legend:
Format in all cases: in vivo
[1] = system: Male C57B1/6 mice; assay: Food intake and body weight of male C57Bl/6 mice under restricted feeding (Example 3); settings: for Post-treatment Food Intake (5 Hour): 5 hour meal; for food intake (in words): restricted feeding paradigm; for Change in Body weight % / Change in Body weight (grams ± SEM) / Post-treatment Body weight: restricted feeding
Description: Animals. […] Food was withheld for the remainder of each day. Because of the restricted feeding time, the mice eat less than under ad libitum food availability. Therefore, reduction of food intake in this model requires a drug effect sufficient to overcome the hunger stimulus provided by subnormal daily food intake. Drug Administration. Groups of 10 mice each (individually weighed and marked, divided into 5/cage and trained and monitored as above; were dosed once per day with Compound BI (100 mg/kg), rosiglitazone (3 mg/kg), both drugs, or vehicle by oral gavage at 8 AM for four consecutive days. Comparator groups receiving appetite modulators not suitable for oral dosing (PYY and cerulenin) received intraperitoneal injections at 8 AM for four consecutive days. […] [table]

[2] = system: Adiponectin; assay: Serum adiponectin in db/db mice after two weeks (Example 4); settings: for Adiponectin ± SD: db/db mice serum, compound alone 100 mg/kg; for effect on adiponectin with concurrent rosiglitazone (in words) / serum adiponectin, individual agents (in words): db/db mice; for effect on adiponectin with concurrent rosiglitazone (in words): 100 mg/kg + RSG 3 mg/kg; for serum adiponectin, individual agents (in words): agent alone
Description: Adiponectin is an glycoprotein secreted from white adipose tissue. Adiponectin improves insulin sensitive in other tissues, e.g. muscle and liver, and is also protective against atherosclerosis. Thiazolidinedione antidiabetic agents such as rosiglitazone or pioglitazone act largely via action at the PPAR-gamma, a nuclear receptor involved in regulation of fuel metabolism. PPAR-gamma agonists enhance adiponectin production by adipose tissue, and this may contribute to their beneficial effects in diabetes and related metabolic disorders.
(§1) • 8. Vehicle (1% hydroxypropylmethylcellulose) • 9. Compound BI 100 mg/kg • 10. Rosiglitazone (RSG) 3 mg/kg • 11. Compound BI 100 mg/kg+RSG 3 mg/kg • 12. Compound CF 100 mg/kg • 13. Compound CF 100 mg/kg+RSG 3 mg/kg • 14. Compound CT 100 mg/kg+RSG 3 mg/kg • 15. […]
(§2) After two weeks, blood samples were collected from the retro-orbital sinus and processed for serum chemistry measurements.

[3] = system: db/db mice; assay: Serum glucose in db/db mice after two weeks (Example 4); settings: compound alone 100 mg/kg
Description: as §1, §2

[4] = system: db/db mice; assay: Serum glucose in db/db mice, combinations with rosiglitazone or pioglitazone, 4 weeks (Example 5); settings: 4 weeks oral once per day
Description: Male db/db mice have a defect in the receptor for the appetite-regulating protein leptin and consequently develop hyperphagia, obesity, insulin resistance, hyperglycemia, hypertriglyceridemia. Male db/db mice are an accepted animal model for Type II diabetes. The effect of a range of single daily doses of orally administered Compound BI was assessed in this model, and the efficacy of rosiglitazone alone and in combination with Compound BI was also examined.
Male C57BL/Ksola db/db mice (“db/db mice”) were obtained from Harlan (Indianapolis, Ind.) and allowed to acclimate for a minimum of one week.
Body weights and blood glucose levels were measured and animals were sorted groups of 6-7 mice with equivalent mean body weights in each group. […].
• 12. Vehicle • 13. Compound BI 100 mg/kg/day • 14. Rosiglitazone 3 mg/kg • 15. Rosiglitazone 3 mg/kg+Compound BI 100 mg/kg • 16. Pioglitazone 30 mg/kg • 17. Pioglitazone 30 mg/kg+Compound BI 100 mg/kg • 18. Pioglitazone 100 mg/kg • 19. Pioglitazone 100 mg/kg+Compound BI 100 mg/kg
Drug preparation: Compound BI was suspended in a vehicle comprising 1% aqueous hydroxypropylmethylcellulose, using a tissue homogenizer to minimize particle size and maximize uniformity of the suspension. Pioglitazone and rosiglitazone were suspended in the same vehicle after pulverization of commercial tablets of each of these drugs. Drug concentrations in the dosing suspension for each treatment group were adjusted according to body weights so that a constant volume of 0.4 ml provided appropropriate drug doses in all groups.
Drug Administration: Drugs were administered orally by gavage once per day for 28 days.
Blood sampling: For serum chemistry analysis, nonfasting blood samples (200 microliters) were obtained via the retro-orbital sinus and collected in serum separator tubes at 11 AM on day 28 after initiation of drug administration.

[5] = Cerulenin 30 mg/kg i.p. once per day
[6] = PYY 100 mg/kg i.p. once per day

## C/C=C/C/C=C/CCC(=O)[C@H]1O[C@H]1C(N)=O [Cerulenin]
[1]; [5]
  Post-treatment Food Intake (5 Hour): 2.45 ± 0.10 grams
  Change in Body weight %: +0.81 ± 0.49%
  Change in Body weight (grams ± SEM): +0.16 ± 0.10 grams
  Post-treatment Body weight: 21.18 ± 0.66 grams
[1]
  food intake (in words): failed to have an effect

## Cc1cccc(C)c1COc1cccc(CC(=O)O)c1 [Compound CF, 3-(2,6-Dimethylbenzyloxy)phenylacetic acid]
[2]
  Adiponectin ± SD: 6.5 ± 2.0 micrograms/ml
  effect on adiponectin with concurrent rosiglitazone (in words): strongly amplify the effect of concurrent rosiglitazone on adiponectin
  serum adiponectin, individual agents (in words): did not elevate serum adiponectin levels
[3]
  Glucose ± SD: 305 ± 75 mg/dL

## Cc1cccc(C)c1COc1cccc(CC(=O)NO)c1 [Compound CT, N-Hydroxy-2-[3-(2,6-dimethylbenzyloxy)phenyl]acetamide]
[2]
  Adiponectin ± SD: 5.4 ± 1.5 micrograms/ml
  effect on adiponectin with concurrent rosiglitazone (in words): strongly amplify the effect of concurrent rosiglitazone on adiponectin
  serum adiponectin, individual agents (in words): did not elevate serum adiponectin levels
[3]
  Glucose ± SD: 235 ± 107 mg/dL

## CCc1ccc(CCOc2ccc(CC3SC(=O)NC3=O)cc2)nc1 (centres unmarked) [PIO, pioglitazone hydrochloride]
[4]; PIO 30 mg/kg
  Serum Glucose (mg/dL) Mean ± SD: 550 ± 74 mg/dL
[4]; PIO 100 mg/kg
  Serum Glucose (mg/dL) Mean ± SD: 597 ± 228 mg/dL

## Peptide YY fragment 3-36 human [PYY]
[1]; [6]
  Post-treatment Food Intake (5 Hour): 2.28 ± 0.25 grams
  Change in Body weight %: −0.96 ± 0.50%
  Change in Body weight (grams ± SEM): −0.20 ± 0.10 grams
  Post-treatment Body weight: 20.86 ± 0.33 grams
[1]
  food intake (in words): failed to have an effect
